Patent publication EP2283839A1, “Polyunsaturated hydroxylated molecule having an eze geometry and its use in therapy” (Institut National des Sciences Appliquées de Lyon, priority 2009, dated 2011)
Marks after values point to notes of the source that are not given here.

Test system: platelets isolated from human blood
Experiment: Measurement of platelet aggregation (turbidimetric method, aggregometer)
Type: cell-based
Settings: 1 µM triene molecules; Collagen-induced platelet aggregation; measured after 4 min
Description: Aggregation tests were performed on platelets isolated from human blood in presence or not of different dihydroxylated triene compounds with different double bond geometry: ZEE, EZE or ZZZ. Platelet aggregation was determined by a standard turbidimetric method using a dual aggregometer (CHRONO-LOG, USA). The levels of light transmission were calibrated as 0 % for a platelet suspension and 100% for the Tyrode/HEPES solution (pH 7.35). 400 µl of platelet suspension in a vial was preincubated for 1 min at 37 °C under a continuous stirring condition, 1 µl of sample in ethanol was added for incubation, the activators (collagen, arachidonic acid, or U46619) were added after 2 min of incubation and the extent of platelet aggregation was measured after 4 min running. Other compounds were prepared using the same procedure or by conversion of PDX and compared to similar compounds of different configurations ZEE or EEE. Table I: Effects of 1 µM triene molecules on Collagen-induced platelet aggregation

Row | Structure (SMILES) | % inhibition
1 | CCCCC/C=C\C[C@H](O)/C=C/C=C\C=C\[C@@H](O)CCCC(=O)O [5(S),12(S)-diHETE, 5(S),12(S)-dihydroxy-eicosa-6E,8Z,10E,14Z tetraenoic acid] | 74.9** %
2 | CCCCC/C=C\C[C@@H](O)/C=C/C=C/C=C/[C@@H](O)CCCC(=O)O [6-trans LTB4, 5(S),12(R)-dihydroxy-eicosa-6E,8E,10E,14Z-tetraenoic acid] | 8.1%
3 | CCCCC/C=C\C[C@H](O)/C=C/C=C/C=C/[C@@H](O)CCCC(=O)O [6trans-12-epi LTB4, 5(S),12(S)-dihydroxy-eicosa-6E,8E,10E,14Z-tetraenoic acid] | 1.8%
4 | CCCCC[C@H](O)/C=C/C=C\C=C\[C@@H](O)C/C=C\CCCC(=O)O [8(S),15(S)-diHETE, 8(S),15(S)-dihydroxy-eicosa-5Z,9E,11Z,13E -tetraenoic acid] | 66.5** %
5 | CC/C=C\C[C@H](O)/C=C/C=C\C=C\[C@H](O)C/C=C\C/C=C\CCC(=O)O [10(R),17(S)-diOH-22:6, 10(R),17(S)-dihydroxy-docosa-4Z,7Z,11E,13Z,15E,17Z-hexaenoic acid] | 70.0** %
6 | CCCCCCCC[C@H](O)/C=C/C=C/C=C\[C@@H](O)CCCC(=O)O [12-epi LTB3, 5(S),12(S)-dihydroxy-eicosa-6Z,8E,10E,-trienoic acid] | 7.4%
7 | CCCCC/C=C\C[C@H](O)/C=C/C=C/C=C\[C@@H](O)CCCC(=O)O [12-epi LTB4, 5(S),12(S)-dihydroxy-eicosa-6Z,8E,10E,14Z-tetraenoic acid] | 3.9%
8 | CCCCCCCC[C@@H](O)/C=C/C=C/C=C\[C@@H](O)CCCC(=O)O [LTB3, 5(S),12(R)-dihydroxy-eicosa-6Z,8E,10E,-trienoic acid] | 5.0%
9 | CCCCC/C=C\C[C@@H](O)/C=C/C=C/C=C\[C@@H](O)CCCC(=O)O [LTB4, 5(S),12(R)-dihydroxy-eicosa-6Z,8E,10E,14Z-tetraenoic acid] | 3.4%
10 | CC/C=C\C[C@H](O)/C=C/C=C\C=C\[C@@H](O)C/C=C\C/C=C\CCC(=O)O [PDX, 10S,17S-dihydroxy-docosa-4Z,7Z,11E,13Z,15E,19Z-hexaenoic acid] | 56.1** %
11 | CCCCC[C@H](O)/C=C/C=C\C=C\[C@@H](O)CCCCCCCCC(=O)O [diOH-22:3, 10(S),17(S)-dihydroxy-docosa-11E,13Z,15E,-trienoic acid] | 63.8** %
